Assay [1] has as its system HMGB1 and S100A9. The assay is described as follows: Radiation-induced DAMP molecules in mice serum, western blot. Conditions: 6.11Gy, PLAG 50, 250 mg/kg oral 3 days. It counts as in vivo. On the procedure:
The total-body of mice were irradiated with a gamma-ray of 6.11Gy on day 0. After that, the body weight of 1 day was measured and divided into 3 groups according to the average. PLAG (50, 250 mg/kg) or PBS was orally administered for 3 days from 1 day and sacrificed on the 3rd day. Add 3 ul serum to 97 ul of 1×SDS sample buffer and boiled for 10 min. Proteins from each sample were separated by sodium dodecyl sulfate-polyacrylamide gel electrophoresis on 8% polyacrylamide gels and the proteins were blotted onto a PVDF membrane (Millipore Corporation, Germany). The membrane was blocked with 5% non-fat dried milk (BD bioscience) in PBS containing 0.05% Tween-20 (Calbiochem) for 1 h. The membrane was incubated with anti-HMGB1 (abcam), anti-MRP14 (abcam) at 4° C. overnight. After washing with PBS containing 0.05% Tween-20, the membrane was stained with goat anti-rabbit IgG peroxidase (ENZO). Target proteins were detected with Immobilon Western Chemiluminescent HRP Substrate (Millipore Corporation).

For assay [2], the system named is NETosis of dHL-60 cells. Kind of assay: IMQ-induced NETosis, confocal microscopy of DNA-elastase complex. It counts as cell-based, human. Conditions: PLAG 10 or 100 μg/mL, dose-dependent. On the procedure: HL-60 cells were differentiated (dHL-60) to neutrophil-like cells in the culture medium with the addition of 1.3% DMSO (Sigma) for 5 days in a humidified atmosphere at 37° C. without changing the medium. dHL-60 cells (2×10^5 cells/mL) were loaded with 5 μM fluo-4 AM for 45 minutes and washed three times with warmed modified (37° C.) HBSS buffer (137.93 mM NaCl, 5.33 mM KCl, 2 mM CaCl2, 1 mM MgSO4, 2.38 mM HEPES, 5.5 mM glucose, pH to 7.4). The cells were seeded on black-walled 96-well plates and then treated with vehicle (0.1% DMSO), imiquimod (10 μg/mL) or PLAG (10 or 100 μg/mL) just before measurement. Baseline fluorescence was measured before treatment, and fluorescence was read every 20 s for 700 s using an excitation wavelength of 494 nm, an emission wavelength of 516 nm in a FlexStation 3 microplate reader (Molecular Devices). Fluorescence values were reported as F/Fo according to the calculation: [ΔF=(494 nm)f/(516 nm)f−(494 nm)0/(516 nm)0]. […]
HL-60 cells were harvested and detected extracellular DNA-elastase complex by using ELISA and visualized by using confocal microscopy (×400) or scanning electron microscope (SEM) (×8000). HL-60 cells were washed with PBS and mounted in DAPI-containing fluorescence microscopy mounting medium (Invitrogen). Samples were analyzed with a laser scanning confocal microscope (Carl Zeiss, Oberkochen, Germany).

The test system of assay [3] is Pseudomonas aeruginosa strain K (PAK) in bone marrow-derived macrophages (BMDMs). The assay is described as follows: In vitro phagocytosis and bacterial killing assay, BMDMs. In kind it is cell-based. Conditions: for phagocytic activity of BMDMs (intracellular PAK CFU, confocal): 100 μg/ml pretreated 1 h, PAK MOI 50 for 1 h. On the procedure:
For immunofluorescence-based measurement of phagocytosis and clearance, BMDMs were grown on glass coverslips in 24-well plates. The cells were infected with PAK (MOI, 50) for different time intervals and then were treated with 10 μg/ml gentamycin for 30 minutes to remove extracellular PAK attached to the cell surface. The infected cells were washed with ice-cold PBS several times, followed by fixing for 10 minutes at room temperature in methanol or 10% paraformaldehyde. The cells were stained with anti-Pseudomonas antibody (Abcam) and then were incubated with goat anti-rabbit IgG secondary antibody conjugated with Alexa Fluor 488. Slides were mounted using the mounting medium ProLong™ Gold antifade reagent with the DNA-binding blue dye DAPI (Thermo Scientific™) and were imaged with a confocal microscope (Zeiss LSM 800, Germany).
For CFU counting-based phagocytosis and bacterial killing assay, PAK was cultured at 37° C. overnight with continuous shaking and was resuspended in PBS. The BMDMs or THP-1 cells were incubated with PAK (MOI, 50) for different time intervals at 37° C. The cells were further cultured in the medium containing 10 μg/ml gentamycin for 30 minutes and then were lysed by 0.5% SDS. The diluted aliquots were spread on LB agar plates, and CFU was counted after incubation of the plates overnight at 37° C.
To evaluate whether PLAG accelerates phagocytosis of PAK by macrophages in vitro systems, bone marrow-derived macrophages (BMDMs) were pretreated with PLAG, and then infected with PAK (MOI, 50) for different lengths of time. Gentamycin ([…]) was treated to the cells for 30 minutes to remove extracellular bacteria. Immunofluorescence micrographs of BMDMs incubated with PAK confirmed that PLAG accelerated not only engulfment of bacteria, but also clearance of bacteria (FIG. 5A). […] PAK is recognized by toll-like receptors 4 and 5 and PAK is phagocytosed by co-cultured macrophage at 2 hrs and sustained for 4 hrs. In the PLAG treated cells, phagocytosis of PAK starts at 30 min and maximized at 1 hr and the invading PAK is cleared at 2 hrs.
For the CFU counting-based phagocytosis assay, PAK was cultured at 37° C. overnight with continuous shaking and then resuspended in PBS. BMDMs were pretreated with 100 μg/ml of PLAG or PLH for 1 hour. The cells were infected with PAK (multiplicity of infection [MOI], 50) for 1 h, and then treated with 10 μg/ml gentamycin for 30 minutes to remove extracellular PAK attached to the cell surface. Then, the cells were lysed with 0.5% SDS and serially diluted in PBS to spread on LB agar plates. CFU counts were performed after overnight incubation at 37° C.
For the immunofluorescence-based measurement of phagocytosis and clearance, BMDMs were grown on glass coverslips in 24-well plates. The cells were infected with PAK (MOI, 50) for 1 hour and then treated with 10 μg/ml gentamycin for 30 minutes to remove extracellular PAK attached to the cell surface. The infected cells were washed several times with ice-cold PBS and then fixed for 10 minutes at room temperature in methanol or 10% paraformaldehyde. The cells were then incubated with anti-Pseudomonas primary and Alexa Fluor 488-conjugated goat anti-rabbit IgG secondary antibodies. The coverslips were mounted on slides with ProLong Gold antifade reagent with DAPI (Thermo Fisher Scientific) and imaged with a confocal microscope (LSM 800; Zeiss, Germany). […]

[4] abbreviates: PAK MOI 50, PLAG pretreated BMDMs.

Entries after “also recorded” stand apart in the source; their conditions may differ.

The source of these data is patent publication US20220339135A1, “COMPOSITIONS AND METHODS FOR MODULATING AN INFLAMMATORY RESPONSE” (Enzychem Lifesciences Corporation, priority 2019, published 2022).

Take `CCCCC/C=C\C/C=C\CCCCCCCC(=O)OC(COC(C)=O)COC(=O)CCCCCCCCCCCCCCC` (racemic) [PLAG, 1-palmitoyl-2-linoleoyl-3-acetylglycerol]: the “level of HMGB1 and S100A9 induced by radiation” value in assay [1] was “significantly decreased”. In addition, the “IMQ-induced NETosis” value in assay [2] is “promotes”. Moreover, the “phagocytic activity of BMDMs (intracellular PAK CFU, confocal)” value in assay [3] is reported as “most advanced phagocytosis; also recorded: most effectively enhanced”. Besides, in assay [3] (setting [4]), the “invading PAK is cleared” value came to 2 h, the “phagocytosis of PAK maximized” value worked out at 1 h and the “phagocytosis of PAK starts” value was 30 min.

Consider `CCCCC/C=C\C/C=C\CCCCCCCC(=O)OC(CO)COC(=O)CCCCCCCCCCCCCCC` (stereo not shown) [PLH, palmitic linoleic hydroxyl glycerol, reference compound], for which the “phagocytic activity of BMDMs (intracellular PAK CFU, confocal)” value in assay [3] is given as “little effect”.
